Assay results from US11440908B2, “Crystalline forms of dasatinib” (Johnson Matthey Public Limited Company, priority 2018, dated 2022).

Tests used:
Format in all cases: physicochemical
[1] = Retention of solid form under high humidity conditions; conditions: about ≥95% relative humidity (RH) overnight (about 18-20 h), dried material
Experimental: (§1) About 120 mg of dasatinib is dispensed in about 1 mL of ethyl formate and stirred at temperatures of about 15° C. or about 45° C. for about 24 h. The slurries that are obtained at either of two temperatures are filtered, to yield Form I of ethyl formate solvate of dasatinib.

[2] = Storage stability at controlled temperature/relative humidity
[3] = Moisture uptake on exposure to 0-95% RH; conditions: exposed to 0-95% RH
[4] = Retention of solid form after drying under vacuum; conditions: dried under vacuum at about 45° C. overnight (about 18-20 h)
Experimental: as §1

solid form after exposure to high humidity [1]: retains its form | stability on storage ([2]; 25° C./97% RH): stable up to 5 months | stability on storage ([2]; 40° C./75% RH): stable up to 5 months | moisture uptake [3]: < 1% | solid form after drying under vacuum [4]: retains its form
SMILES: Cc1nc(Nc2ncc(C(=O)Nc3c(C)cccc3Cl)s2)cc(N2CCN(CCO)CC2)n1 [dasatinib]
